Measured values as given in ChEMBL document CHEMBL3046279, “Comparison of larvicidal, adulticidal and acaricidal activity of two geometrical butylidenephthalide isomers” (2006).
Calls of active or inactive are those of the source. No cut-off for these calls is given here.

Columns and labels:
Drosophila melanogaster [1] = assay: Adulticidal activity against Drosophila melanogaster […] assessed as mortality measured per adult; type: functional
Dermatophagoides farinae [2] = assay: Acaricidal activity against Dermatophagoides farinae assessed as mortality at 50 ug/cm2 after 24 hr relative to control; type: functional
Drosophila melanogaster [3] = assay: Larvicidal activity against Drosophila melanogaster larvae assessed as mortality administered through diet after 8 days; type: functional
Dermatophagoides farinae [4] = assay: Acaricidal activity against Dermatophagoides farinae assessed as mortality at 5 ug/cm2 after 24 hr relative to control; type: functional
Tyrophagus putrescentiae [5] = assay: Acaricidal activity against Tyrophagus putrescentiae assessed as mortality at 20 ug/cm2 after 24 hr relative to control; type: functional
Ctenocephalides felis = assay: Insecticidal activity against adult Ctenocephalides felis at 200 ug/cm2; type: functional, organism-based
Tyrophagus putrescentiae [6] = assay: Acaricidal activity against Tyrophagus putrescentiae assessed as mortality at 2.5 ug/cm2 after 24 hr relative to control; type: functional
Dermatophagoides farinae [7] = assay: Acaricidal activity against Dermatophagoides farinae assessed as mortality at 10 ug/cm2 after 24 hr relative to control; type: functional
Tyrophagus putrescentiae [8] = assay: Acaricidal activity against Tyrophagus putrescentiae assessed as mortality at 50 ug/cm2 after 24 hr relative to control; type: functional
Tyrophagus putrescentiae [9] = assay: Acaricidal activity against Tyrophagus putrescentiae assessed as mortality at 10 ug/cm2 after 24 hr relative to control; type: functional
Drosophila melanogaster [10] = assay: Ratio of rotenone LD50 to compound LD50 for adult Drosophila melanogaster; type: functional
Tyrophagus putrescentiae [11] = assay: Ratio of N,N-diethyl-m-toulamide (DEET) LC50 to compound LC50 for Tyrophagus putrescentiae; type: functional
Dermatophagoides farinae [12] = assay: Acaricidal activity against Dermatophagoides farinae assessed as mortality at 20 ug/cm2 after 24 hr relative to control; type: functional
Dermatophagoides farinae [13] = assay: Ratio of N,N-diethyl-m-toulamide (DEET) LC50 to compound LC50 for Dermatophagoides farinae; type: functional
Drosophila melanogaster [14] = assay: Ratio of rotenone LC50 to compound LC50 for Drosophila melanogaster larvae; type: functional
Dermatophagoides farinae [15] = assay: Acaricidal activity against Dermatophagoides farinae assessed as mortality after 24 hr relative to control; type: functional
Tyrophagus putrescentiae [16] = assay: Acaricidal activity against Tyrophagus putrescentiae assessed as mortality after 24 hr; type: functional
Dermatophagoides farinae [17] = assay: Acaricidal activity against Dermatophagoides farinae assessed as mortality at 2.5 ug/cm2 after 24 hr relative to control; type: functional
Dermatophagoides farinae [18] = assay: Acaricidal activity against Dermatophagoides farinae assessed as mortality at 30 ug/cm2 after 24 hr relative to control; type: functional
Tyrophagus putrescentiae [19] = assay: Acaricidal activity against Tyrophagus putrescentiae assessed as mortality at 100 ug/cm2 after 24 hr relative to control; type: functional
Dermatophagoides farinae [20] = assay: Acaricidal activity against Dermatophagoides farinae assessed as mortality at 40 ug/cm2 after 24 hr relative to control; type: functional
Tyrophagus putrescentiae [21] = assay: Acaricidal activity against Tyrophagus putrescentiae assessed as mortality at 30 ug/cm2 after 24 hr relative to control; type: functional
Tyrophagus putrescentiae [22] = assay: Acaricidal activity against Tyrophagus putrescentiae assessed as mortality at 5 ug/cm2 after 24 hr relative to control; type: functional

CCC/C=C1/OC(=O)c2ccccc21 [(E)-BUTYLIDENEPHTHALIDE]
LD50 (Drosophila melanogaster [1]): 0.94 µg | mortality at 50 µg/cm2 (Dermatophagoides farinae [2]): 100% | LC50 (Drosophila melanogaster [3]): 2070 µM | mortality at 5 µg/cm2 (Dermatophagoides farinae [4]): 51.6% | mortality at 20 µg/cm2 (Tyrophagus putrescentiae [5]): 52.9% | Activity (Ctenocephalides felis): inactive | mortality at 2.5 µg/cm2 (Tyrophagus putrescentiae [6]): 12.3% | mortality at 10 µg/cm2 (Dermatophagoides farinae [7]): 94.7% | mortality at 50 µg/cm2 (Tyrophagus putrescentiae [8]): 57.2% | mortality at 10 µg/cm2 (Tyrophagus putrescentiae [9]): 33% | Ratio (Drosophila melanogaster [10]): 3.91 | RatioLC50 (Tyrophagus putrescentiae [11]): 0.64 | mortality at 20 µg/cm2 (Dermatophagoides farinae [12]): 100% | RatioLC50 (Dermatophagoides farinae [13]): 2.78 | RatioLC50 (Drosophila melanogaster [14]): 0.01 | LC50 (Dermatophagoides farinae [15]): 4.67 microg/cm2 | LC50 (Tyrophagus putrescentiae [16]): 25.56 microg/cm2 | mortality at 2.5 µg/cm2 (Dermatophagoides farinae [17]): 12.2%

CCN(CC)C(=O)c1cccc(C)c1 [DIETHYLTOLUAMIDE]
mortality at 50 µg/cm2 (Dermatophagoides farinae [2]): 100% | mortality at 30 µg/cm2 (Dermatophagoides farinae [18]): 100% | mortality at 10 µg/cm2 (Dermatophagoides farinae [7]): 33.2% | mortality at 50 µg/cm2 (Tyrophagus putrescentiae [8]): 100% | mortality at 10 µg/cm2 (Tyrophagus putrescentiae [9]): 20.8% | mortality at 100 µg/cm2 (Tyrophagus putrescentiae [19]): 100% | mortality at 20 µg/cm2 (Dermatophagoides farinae [12]): 72.2% | mortality at 40 µg/cm2 (Dermatophagoides farinae [20]): 100% | LC50 (Dermatophagoides farinae [15]): 12.98 microg/cm2 | mortality at 30 µg/cm2 (Tyrophagus putrescentiae [21]): 81.1% | LC50 (Tyrophagus putrescentiae [16]): 16.28 microg/cm2

C=C(C)[C@H]1Cc2c(ccc3c2O[C@@H]2COc4cc(OC)c(OC)cc4[C@@H]2C3=O)O1 [ROTENONE]
LD50 (Drosophila melanogaster [1]): 3.68 µg | LC50 (Drosophila melanogaster [3]): 20 µM

CCC/C=C1\OC(=O)c2ccccc21 [Z-butylidenephthalide]
LD50 (Drosophila melanogaster [1]): 0.84 µg | mortality at 50 µg/cm2 (Dermatophagoides farinae [2]): 100% | LC50 (Drosophila melanogaster [3]): 940 µM | mortality at 5 µg/cm2 (Dermatophagoides farinae [4]): 32.1% | mortality at 20 µg/cm2 (Tyrophagus putrescentiae [5]): 56.3% | Activity (Ctenocephalides felis): inactive | mortality at 2.5 µg/cm2 (Tyrophagus putrescentiae [6]): 7.8% | mortality at 10 µg/cm2 (Dermatophagoides farinae [7]): 77.8% | mortality at 50 µg/cm2 (Tyrophagus putrescentiae [8]): 74.1% | mortality at 10 µg/cm2 (Tyrophagus putrescentiae [9]): 22.8% | Ratio (Drosophila melanogaster [10]): 4.38 | RatioLC50 (Tyrophagus putrescentiae [11]): 0.8 | mortality at 5 µg/cm2 (Tyrophagus putrescentiae [22]): 12.9% | mortality at 20 µg/cm2 (Dermatophagoides farinae [12]): 100% | RatioLC50 (Dermatophagoides farinae [13]): 2.25 | RatioLC50 (Drosophila melanogaster [14]): 0.023 | LC50 (Dermatophagoides farinae [15]): 5.76 microg/cm2 | LC50 (Tyrophagus putrescentiae [16]): 20.37 microg/cm2 | mortality at 2.5 µg/cm2 (Dermatophagoides farinae [17]): 15.6%
